Measurements taken from patent US6372957B1, “Transgenic mouse comprising a MEF2 binding site operatively linked to an indicator gene and methods of use” (Board of Regents, The University of Texas System, priority 1998, dated 2002).

Experiments:
[1] = system: GAL4-MEF2C fusion protein; assay: pG5E1b-luciferase (Gal-luc) reporter with GAL-MEF2C (complete open reading frame) in cardiomyocytes; assay type: cell-based, rat; conditions: for block of activation of GAL-MEF2C by PE: cardiomyocytes stimulated with PE
Procedure: FIG. 12A, FIG. 12B and FIG. 12C. CaM kinase and MAP kinase target different domains of MEF2. Primary neonatal rat cardiomyocytes in serum-free medium were transiently transfected with the indicated expression plasmids and luciferase activity was determined in cell extracts. FIG. 12A, cells were stimulated with PE (10 uM) or 10% FBS, as indicated, and expression of the MEF2-dependent reporter, 3×MEF2-luciferase, was assayed. FIG. 12B, cells transiently transfected with pG5E1b-luciferase (Gal-luc) and GAL-MEF2C were stimulated with PE, as in FIG. 12A, in the presence of KN62 or SB202190, as indicated. FIG. 12C, cells were transiently transfected with pG5E1b-luciferase and GAL-MEF2C (left panel) or GAL-MEF2C-ΔN (right panel) along with activated CaMKIV and MKK6, as indicated.

MEF2 [2] = assay: MEF2 DNA binding activity in stimulated cardiomyocytes; assay type: cell-based, rat; conditions: cardiomyocytes stimulated with PE or FBS
[3] = system: GAL4-MEF2C fusion protein; assay: GAL4-dependent reporter with GAL4 fused to the C-terminus of MEF2C (transcription activation domains) in cardiomyocytes; assay type: cell-based; conditions: stimulation of cardiomyocytes
Text: FIG. 6. Phenylephrine induces MEF2C transcriptional activity through a CaMK-dependent pathway. Cardiomyocytes were transiently transfected with expression vectors encoding GAL4-MEF2C and a GAL4-dependent reporter gene in the presence and absence of PE and the CaMK inhibitor KN-93.
In light of the ability of MEF2 to respond to calcium-dependent signal transduction pathways in T cells, the inventors have investigated whether the same pathways also activate MEF2 in cardiomyocytes. […] When the C-terminus of MEF2C, which contains the transcription activation domains (TADs), but lacks the MADS and MEF2 domains required for DNA binding and dimerization, is fused to the DNA binding domain of the yeast transcription factor GAL4, the resulting GAL4-MEF2C fusion protein retains sensitivity to calcineurin and CaMKIV (FIG. 5). This GAL4-MEF2C fusion protein is also activated by stimulation of cardiomyocytes with the hypertrophic agonist phenylephrine (PE) (FIG. 6).

MEF2 [4] = assay: 3×MEF2-luciferase MEF2-dependent reporter in transiently transfected primary neonatal rat cardiomyocytes; assay type: cell-based
Text: To determine whether MEF2 was a target for hypertrophic signaling in cardiomyocytes, the inventors tested whether hypertrophy in response to phenylephrine (PE) and fetal bovine serum (FBS) activated a MEF2-dependent reporter (3×MEF2-luciferase), containing three MEF2 binding sites.

Row | block of activation of GAL-MEF2C by PE [1] | amount of MEF2 DNA binding activity (MEF2 [2]) | activity of GAL4-MEF2C fusion protein (complete open reading frame of MEF2C) ([1]; cardiomyocytes, PE or FBS) | activation of MEF2-dependent reporter (3×MEF2-luciferase) (MEF2 [4]; primary neonatal rat cardiomyocytes, serum-free medium, PE 10 uM or 10% FBS) | SMILES | activation of GAL4-MEF2C fusion protein (C-terminus of MEF2C) [3] | activation of a reporter containing a mutant MEF2 site (MEF2 [4]; cardiomyocytes, PE or FBS)
1 | partially blocked | – | – | – | CN([C@@H](Cc1ccc(OS(=O)(=O)c2cccc3cnccc23)cc1)C(=O)N1CCN(c2ccccc2)CC1)S(=O)(=O)c1cccc2cnccc12 [KN62] | – | –
2 | – | unchanged | stimulated activity | stimulated the MEF2 reporter | CNC[C@H](O)c1cccc(O)c1 [PE, phenylephrine] | activated | not a reporter containing a mutant MEF2 site
3 | partially blocked | – | – | – | Oc1ccc(-c2nc(-c3ccncc3)c(-c3ccc(F)cc3)[nH]2)cc1 [SB202190] | – | –
